4 molecules from paper PMC12951562, “SH2scan: Mapping SH2 Domain-Ligand Binding Selectivity for Inhibitors and Degraders” (Journal of Medicinal Chemistry, 2026) can be followed below.

The structures appear in SMILES notation. Non-standard residues stand in square brackets, D forms with d. Residues, ends and D or L forms follow the SMILES beside them. pY = N[C@@H](Cc1ccc(OP(=O)(O)O)cc1)C(=O)O

Assay in all cases: biochemical
What all share (format): binding

One experiment concerns the target T1, MATK (Homo sapiens, UniProt P42679).
T1 construct: the DNA-tagged SH2 domain concentrations used in this study were <0.1 nM; made in house; host or cells: HEK293 (transient transfection, unpurified extract)
T1 sequence (P42679 122-211 limits assumed): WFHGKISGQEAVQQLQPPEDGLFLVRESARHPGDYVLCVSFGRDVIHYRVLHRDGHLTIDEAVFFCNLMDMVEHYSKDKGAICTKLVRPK

A further experiment concerns the target T2, HCK (Homo sapiens, UniProt P08631).
T2 construct: the DNA-tagged SH2 domain concentrations used in this study were <0.1 nM; made in house; host or cells: HEK293 (transient transfection, unpurified extract)

In another experiment the target is T3, LCK (Homo sapiens, UniProt P06239).
T3 construct: the DNA-tagged SH2 domain concentrations used in this study were <0.1 nM; made in house; host or cells: HEK293 (transient transfection, unpurified extract)

The target of the next experiment is T4, SRC (Homo sapiens, UniProt P12931).
T4 construct: made in house; host or cells: HEK293 (transient transfection), unpurified extract

A further experiment concerns the target T5, SHC1 (Homo sapiens, UniProt P29353).
T5 construct: made in house; host or cells: HEK293 (transient transfection), unpurified extract
T5 sequence (P29353 1-583): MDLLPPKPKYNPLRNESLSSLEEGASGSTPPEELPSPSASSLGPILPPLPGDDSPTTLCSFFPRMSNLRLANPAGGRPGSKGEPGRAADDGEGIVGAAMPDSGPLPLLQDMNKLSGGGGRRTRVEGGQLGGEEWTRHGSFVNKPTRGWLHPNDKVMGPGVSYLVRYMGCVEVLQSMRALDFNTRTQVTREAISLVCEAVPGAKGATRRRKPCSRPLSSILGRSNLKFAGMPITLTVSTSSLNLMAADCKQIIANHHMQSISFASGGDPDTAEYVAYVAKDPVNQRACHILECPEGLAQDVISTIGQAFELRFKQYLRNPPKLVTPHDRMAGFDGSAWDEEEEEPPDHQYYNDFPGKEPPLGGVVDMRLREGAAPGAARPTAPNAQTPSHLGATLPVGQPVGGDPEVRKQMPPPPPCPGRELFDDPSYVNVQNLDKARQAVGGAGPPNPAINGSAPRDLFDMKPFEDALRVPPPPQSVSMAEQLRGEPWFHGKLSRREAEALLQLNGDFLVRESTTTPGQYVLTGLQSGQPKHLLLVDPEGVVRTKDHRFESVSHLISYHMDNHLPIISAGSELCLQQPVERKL

For a further experiment, the target named is T6, SHC2 (Homo sapiens, UniProt P98077).
T6 construct: made in house; host or cells: HEK293 (transient transfection), unpurified extract
T6 sequence (P98077 1-582): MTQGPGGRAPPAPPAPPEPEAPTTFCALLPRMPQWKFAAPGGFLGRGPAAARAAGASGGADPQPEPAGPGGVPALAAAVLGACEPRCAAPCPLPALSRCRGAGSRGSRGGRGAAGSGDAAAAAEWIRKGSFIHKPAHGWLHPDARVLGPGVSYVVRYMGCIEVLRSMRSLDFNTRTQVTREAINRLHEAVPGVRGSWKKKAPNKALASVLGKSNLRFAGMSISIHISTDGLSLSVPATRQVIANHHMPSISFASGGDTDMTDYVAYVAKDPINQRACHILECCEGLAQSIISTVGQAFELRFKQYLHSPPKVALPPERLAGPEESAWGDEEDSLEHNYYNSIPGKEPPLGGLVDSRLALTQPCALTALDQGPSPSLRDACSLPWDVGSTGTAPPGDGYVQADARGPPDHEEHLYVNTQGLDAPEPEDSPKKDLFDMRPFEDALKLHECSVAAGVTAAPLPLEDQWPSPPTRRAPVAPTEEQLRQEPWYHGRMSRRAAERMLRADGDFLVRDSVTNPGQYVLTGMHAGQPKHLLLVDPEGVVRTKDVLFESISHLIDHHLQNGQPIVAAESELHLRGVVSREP

Another experiment addresses T7, SHC3 (Homo sapiens, UniProt Q92529).
T7 construct: made in house; host or cells: HEK293 (transient transfection), unpurified extract
T7 sequence (Q92529 1-594): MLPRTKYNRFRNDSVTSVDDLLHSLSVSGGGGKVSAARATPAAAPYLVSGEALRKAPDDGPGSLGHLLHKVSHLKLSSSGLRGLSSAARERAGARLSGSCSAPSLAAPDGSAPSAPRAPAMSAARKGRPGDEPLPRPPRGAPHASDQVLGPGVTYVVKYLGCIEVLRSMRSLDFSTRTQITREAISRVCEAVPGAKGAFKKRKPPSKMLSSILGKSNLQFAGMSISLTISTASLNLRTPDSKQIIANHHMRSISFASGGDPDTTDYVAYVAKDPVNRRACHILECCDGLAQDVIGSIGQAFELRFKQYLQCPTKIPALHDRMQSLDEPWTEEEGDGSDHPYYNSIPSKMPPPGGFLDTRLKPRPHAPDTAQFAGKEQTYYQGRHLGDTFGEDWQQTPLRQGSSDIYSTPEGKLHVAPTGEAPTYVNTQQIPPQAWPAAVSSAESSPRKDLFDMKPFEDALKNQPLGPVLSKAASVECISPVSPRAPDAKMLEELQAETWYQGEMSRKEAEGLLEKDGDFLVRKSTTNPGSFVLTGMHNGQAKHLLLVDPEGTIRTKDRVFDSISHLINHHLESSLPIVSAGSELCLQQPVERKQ

A further experiment has as its target T8, SHC4 (Homo sapiens, UniProt Q6S5L8).
T8 construct: made in house; host or cells: HEK293 (transient transfection), unpurified extract
T8 sequence (Q6S5L8 1-630): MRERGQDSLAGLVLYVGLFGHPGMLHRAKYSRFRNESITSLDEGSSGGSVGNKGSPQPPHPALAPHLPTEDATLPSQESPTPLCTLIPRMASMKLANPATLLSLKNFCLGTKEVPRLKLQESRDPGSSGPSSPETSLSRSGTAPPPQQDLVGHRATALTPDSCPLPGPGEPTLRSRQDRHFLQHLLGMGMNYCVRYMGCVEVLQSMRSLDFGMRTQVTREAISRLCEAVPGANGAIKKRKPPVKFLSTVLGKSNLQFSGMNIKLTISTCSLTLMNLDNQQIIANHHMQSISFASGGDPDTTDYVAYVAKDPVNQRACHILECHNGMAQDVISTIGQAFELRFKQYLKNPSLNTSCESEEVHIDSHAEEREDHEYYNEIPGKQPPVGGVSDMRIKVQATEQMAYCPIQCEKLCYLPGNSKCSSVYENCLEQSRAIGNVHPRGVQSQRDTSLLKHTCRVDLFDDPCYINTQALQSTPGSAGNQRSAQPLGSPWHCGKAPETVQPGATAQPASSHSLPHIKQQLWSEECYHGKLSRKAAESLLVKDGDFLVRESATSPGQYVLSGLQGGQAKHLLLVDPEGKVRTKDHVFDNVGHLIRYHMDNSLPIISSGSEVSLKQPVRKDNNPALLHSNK

The target of another experiment is T9, SOCS2 (Homo sapiens, UniProt O14508).
T9 construct: made in house; host or cells: HEK293 (transient transfection), unpurified extract
T9 sequence (O14508 1-198): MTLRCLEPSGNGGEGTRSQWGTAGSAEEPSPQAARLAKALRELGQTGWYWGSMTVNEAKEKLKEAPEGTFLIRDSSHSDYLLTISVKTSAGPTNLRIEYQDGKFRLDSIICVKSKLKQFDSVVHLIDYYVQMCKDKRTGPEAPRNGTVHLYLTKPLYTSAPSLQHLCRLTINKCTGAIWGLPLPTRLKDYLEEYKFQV

For the next experiment, the target named is T10, SOCS6 (Homo sapiens, UniProt O14544).
T10 construct: made in house; host or cells: HEK293 (transient transfection), unpurified extract
T10 sequence (O14544 1-535): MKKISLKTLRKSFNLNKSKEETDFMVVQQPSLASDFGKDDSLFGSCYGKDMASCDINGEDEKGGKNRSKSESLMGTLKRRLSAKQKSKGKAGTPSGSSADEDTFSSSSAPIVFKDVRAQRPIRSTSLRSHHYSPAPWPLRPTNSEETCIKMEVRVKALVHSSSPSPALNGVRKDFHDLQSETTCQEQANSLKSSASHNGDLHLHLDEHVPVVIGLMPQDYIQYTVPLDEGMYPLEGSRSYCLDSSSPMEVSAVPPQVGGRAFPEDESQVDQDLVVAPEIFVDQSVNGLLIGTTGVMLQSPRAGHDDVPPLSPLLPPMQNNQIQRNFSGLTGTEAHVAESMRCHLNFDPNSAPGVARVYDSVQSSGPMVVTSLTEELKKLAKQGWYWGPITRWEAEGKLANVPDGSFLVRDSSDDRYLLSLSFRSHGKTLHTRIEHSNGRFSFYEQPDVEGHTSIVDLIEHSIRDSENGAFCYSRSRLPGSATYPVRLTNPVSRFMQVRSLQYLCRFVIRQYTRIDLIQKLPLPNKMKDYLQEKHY

In the next experiment the target is T11, SOCS7 (Homo sapiens, UniProt O14512).
T11 construct: made in house; host or cells: HEK293 (transient transfection), unpurified extract
T11 sequence (O14512 1-581): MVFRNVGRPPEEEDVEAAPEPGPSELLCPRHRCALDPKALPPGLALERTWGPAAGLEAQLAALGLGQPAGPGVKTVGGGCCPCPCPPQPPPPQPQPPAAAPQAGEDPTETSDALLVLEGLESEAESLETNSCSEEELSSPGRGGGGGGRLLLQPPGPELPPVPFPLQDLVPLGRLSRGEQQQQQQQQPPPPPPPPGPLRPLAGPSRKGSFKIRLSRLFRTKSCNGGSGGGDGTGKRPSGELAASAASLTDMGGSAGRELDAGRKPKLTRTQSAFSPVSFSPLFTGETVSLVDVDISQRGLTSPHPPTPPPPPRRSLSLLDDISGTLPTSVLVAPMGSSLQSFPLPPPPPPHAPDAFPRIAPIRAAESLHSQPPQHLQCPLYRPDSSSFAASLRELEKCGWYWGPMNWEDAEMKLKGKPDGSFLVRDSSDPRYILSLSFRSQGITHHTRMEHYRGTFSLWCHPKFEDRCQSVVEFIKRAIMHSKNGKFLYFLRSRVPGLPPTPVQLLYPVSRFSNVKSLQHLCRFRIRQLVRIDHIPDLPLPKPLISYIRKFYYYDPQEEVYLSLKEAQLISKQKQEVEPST

T4 sequence (P12931 whole entry): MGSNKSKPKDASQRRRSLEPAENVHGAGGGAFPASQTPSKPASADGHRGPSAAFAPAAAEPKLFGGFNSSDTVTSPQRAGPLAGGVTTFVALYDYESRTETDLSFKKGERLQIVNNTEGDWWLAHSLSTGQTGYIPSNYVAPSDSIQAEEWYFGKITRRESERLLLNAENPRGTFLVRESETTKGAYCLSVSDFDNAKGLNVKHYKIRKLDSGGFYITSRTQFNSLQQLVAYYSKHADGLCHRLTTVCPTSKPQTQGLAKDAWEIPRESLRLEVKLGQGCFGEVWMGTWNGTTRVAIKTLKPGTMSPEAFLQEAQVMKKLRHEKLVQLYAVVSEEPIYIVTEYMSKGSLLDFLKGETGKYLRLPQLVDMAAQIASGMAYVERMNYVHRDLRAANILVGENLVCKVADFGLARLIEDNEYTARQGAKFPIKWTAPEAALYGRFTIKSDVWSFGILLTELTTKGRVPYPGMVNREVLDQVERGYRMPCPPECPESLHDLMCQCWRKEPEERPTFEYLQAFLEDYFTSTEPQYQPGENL
T3 sequence (P06239 127-224 limits assumed): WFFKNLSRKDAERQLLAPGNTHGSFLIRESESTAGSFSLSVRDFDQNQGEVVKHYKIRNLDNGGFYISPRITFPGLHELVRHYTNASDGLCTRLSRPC
T2 sequence (P08631 144-241 limits assumed): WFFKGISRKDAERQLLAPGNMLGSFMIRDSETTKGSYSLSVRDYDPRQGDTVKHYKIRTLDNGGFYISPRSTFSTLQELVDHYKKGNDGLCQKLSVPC

By Kd is commonly meant the concentration at which binding is half-saturated. Read a low Kd as higher affinity. Take `CC[C@H](C)[C@H](NC(=O)[C@H](CS)NC(=O)[C@H](CCCNC(=N)N)NC(C)=O)C(=O)N[C@@H](CC(N)=O)C(=O)N[C@@H](Cc1ccc(OP(=O)(O)O)cc1)C(=O)N[C@H](C(=O)N[C@@H](Cc1ccccc1)C(=O)N[C@@H](Cc1ccccc1)C(=O)N1CCC[C@H]1C(=O)N[C@@H](CO)C(=O)N[C@@H](CC(C)C)C(=O)N[C@@H](CCCCN)C(=O)N1CCC[C@H]1C(=O)N[C@@H](CO)C(=O)N[C@@H](CO)C(N)=O)C(C)C`: binding at MATK was characterised by a dissociation constant (Kd) of 0.555 ± 0.128 µM.
Turning to `CC[C@H](C)[C@H](NC(=O)[C@@H]1CCCN1C(=O)[C@@H](NC(=O)[C@H](CCC(=O)O)NC(=O)[C@H](CCC(=O)O)NC(=O)[C@H](Cc1ccc(OP(=O)(O)O)cc1)NC(=O)[C@H](CCC(N)=O)NC(=O)[C@@H]1CCCN1C(=O)[C@H](CCC(=O)O)NC(C)=O)[C@@H](C)CC)C(=O)N[C@@H](Cc1ccc(O)cc1)C(=O)N[C@@H](CC(C)C)C(N)=O` (Ac-EPQ[pY]EEIPIYL-NH2), the Kd at HCK was 1.44 ± 0.475 µM; on LCK, 0.097 ± 0.0516 µM; on SRC, 2.71 ± 1.95 µM.
Take `CC(=O)N[C@@H](CCC(=O)O)C(=O)N[C@@H](CC(N)=O)C(=O)N[C@@H](C)C(=O)N[C@@H](CCC(=O)O)C(=O)N[C@@H](Cc1ccc(OP(=O)(O)O)cc1)C(=O)N[C@@H](CC(C)C)C(=O)N[C@@H](CCCNC(=N)N)C(=O)N[C@H](C(=O)N[C@@H](C)C(N)=O)C(C)C` [Ac-ENAEpYLRVA-NH2] (Ac-ENAE[pY]LRVA-NH2): the Kd worked out at 11 ± 1.26 µM at SHC1, 4.39 ± 0.413 µM at SHC2, 3.78 ± 0.472 µM at SHC3 and 6.63 ± 0.773 µM at SHC4.
As to `CC[C@H](C)[C@H](NC(=O)[C@H](Cc1ccc(O)cc1)NC(=O)[C@@H](NC(=O)[C@H](Cc1ccc(OP(=O)(O)O)cc1)NC(=O)[C@H](CC(N)=O)NC(=O)[C@H](CC(N)=O)NC(=O)CNC(=O)[C@H](CC(N)=O)NC(C)=O)C(C)C)C(=O)N[C@@H](CC(=O)O)C(=O)N1CCC[C@H]1C(=O)N[C@H](C(N)=O)[C@@H](C)O` [Ac-NGNNpYVYIDPT-NH2], the results for the equilibrium dissociation constant (Kd) on SOCS2, at SOCS6 and on SOCS7 were 4.2 ± 0.739 µM, 0.0206 ± 0.00433 µM and 11.7 ± 0.822 µM, respectively.
